Measured values taken from US6737407B1, “Treatment of obesity” (Metabolic Pharmaceuticals, Ltd., priority 1997, dated 2004).
Bridges are numbered along the chain shown (N, C = ends). Where no end group is shown, it is not given here.

Key:
[1] = tested on: adipose tissues from male Zucker fatty (fa/fa) rats; assay: In vitro glycerol release during lipolysis in isolated adipose tissue; type: cell-based, rat
Procedure: (§1) Adipose tissues were removed from animals and sliced into segments of approximately 200 mg each. Then the tissues were pre-incubated in 25 ml vials containing 2 ml of Krebs-Ringerbicarbonate (KRB) buffer, 4% defatted BSA and 5.5 mM glucose under an atmosphere of carbogen (95%O2/ 5%CO2) at 37° C. for 1 hour. Tissues were then transferred to another vials with fresh medium and the incubation was initiated by adding hGH 177-191 peptide or analogues into the vials. The mixtures were then incubated at 37° C. for 90 minutes. After incubation, the tissues wee removed and aliquots (200 μl) of samples withdrawn from the medium were assayed for the contents of glycerol or free fatty acid (FFA) either by the enzyme assay (glycerol kinase) or calorimetric (copper-dye) spectrometry. The NADH or color produced was then monitored by the absorption at 340 nm and 610 nm, respectively.

C57BL/6J (ob/ob) mice = assay: Chronic treatment of C57BL/6J (ob/ob) mice with peptide analogues; type: in vivo, mouse
Procedure: Animals were given a daily intraperitoneal injection of either saline (as control) or peptide analogue (500 μg/kg body weight). Each point represents the mean±SEM of 6 animals.
The treatment for the two groups of animals was as described in FIG. 11A. Each point represents the mean±SEM of 6 animals.
The animals of the same age and same sex were randomly divided into two groups, housed 6 per cage and maintained on a normal 12-hr light/dark cycle at a constant room temperature of 25° C. in the animal house of the Department of Biochemistry and—Molecular Biology, Monash University, Clayton, Australia. Animals were fed ad libitum on pre-determined quantity of animal pellets (Clark King, Melboume, Australia) and allowed free access to water at all times. The animals were given a daily intraperitoneal (i.p) injection of 0.1 ml of either the synthetic peptide (200-500 μg/kg body weight) or equivalent volume of physiological saline (0.9% sodium chloride) for appropriate number of days. The i.p. injection was administered with a 30G×½″ (0.31×13 mm) needle on a 1-ml disposable tuberculin syringes, and the site of injection was the lower left quadrant of the abdomen of the animals. To study the effects of controlled-delivery of hGH 177-191 and analogues, slow-release peptide-pellets in a diameter of 3 mm were implanted intradermally in the abdominal region of Zucker rats under anaesthesia. The body weight and food intake were monitored for the periods of time as indicated.
Cumulative weight gain and food consumption were determined at 3-day intervals by the measurements of body weight and uneaten food remaining in the cages. The animals were placed in a covered chamber to minimise movement during the weighing procedure. The food consumption data were obtained by subtracting the amount of uneaten food remaining in the cages from the original provision.
The animals were anaesthetised with sodium pentobarbitone (80 mg/kg body weight) 12 hr after the last dose of hGH 177-191. Blood samples were collected from the tail vein of anaesthetised animals 45 mins after the administration of anaesthetic. After being centrifuged at 2000×g for 5 minutes, plasma was removed from the samples and used for metabolite assays. Triglyceride and total cholesterol in plasma were measured by enzyme-spectrophotometric methods. The reagents are based on either a modified glycerol phosphate oxidase (GPO)-Trinder's type colour reaction^24 or a cholesterol oxidase-4-aminoantipyrine method^25. All assays were performed with the CentrifiChem System 400 (Union Carbide) containing an automated pipetter, a centrifugal analyser and a recording spectrophotometer. Seronorm Lipid (Nycomed Pharma Co., Oslo, Norway) was used as the calibrator.

Porcine adipose Tissue = assay: Lipolytic activity in porcine adipose tissue; type: cell-based, pig; details: 0.5 μM peptide
Procedure: as §1
Since corresponding sequences of non-human mammals are effectively peptide variants of the human sequence, it is also therefore expected that those corresponding sequences will be effective in other mammals including humans.

[2] = tested on: Human Abdominal adipose Tissue; assay: Antilipogenic activity in human abdominal adipose tissue; type: cell-based; details: 0.1 μM peptide; BSA + insulin
Procedure: The rate of the incorporation of exogenous [C^14]-glucose into total lipid in adipose tissue was measured as the index of anti-lipogenic activity of hGH 177-191.
Adipose tissues were sliced into segments of approximately 200 mg each and then placed in Krebs-Ringer bicarbonate (KRB) buffer (pH 7.4) containing 2% defatted BSA, and glucose (0.1 mg/ml) and gassed with 95% O2-5% CO2 at 37° C. After 1 hr preincubation, the tissues were transferred to another 2 ml of fresh media containing [C^14]-glucose (final specific activity 0.05 μCi/μmol), […] of insulin (0.1 mU/ml) for a further 90 min incubation (conditions as above). Then the tissues were removed, washed thoroughly with KRB buffer and lipid was extracted with 5 ml of chlorofom/methanol (2:1, v/v) The extraction solution was washed with 2 ml of MeOH-H2O solution containing 0.1% MgCl2. A 2.5 ml aliquot of the washed extraction solution was taken and transferred to scintillation vials. The [C^14] radioactivity was measured with a liquid scintillation counter. The rates of total lipid synthesis were expressed as μmol [C^14]-glucose incorporated into lipid/g tissue/hr.
(§2) Tables 6 and 7 show the in vitro antilipogenic and lipolytic activity of hGH 177-191 and two representative analogues (Ref Nos. 9604 and 9605) on human adipose tissue.

[3] = tested on: Human Subcutaneous adipose Tissue; assay: Lipolytic activity in human subcutaneous adipose tissue; type: cell-based; details: 0.5 μM peptide
Procedure: as §1, §2

[4] = Post-treatment (Day 20-38), saline
[5] = Treatment (Day 0-18), i.p. 500 μg/kg daily

Substance | Glycerol release ([1]; peptide concentration 0.1 μM) [μmol/g tissue/hr] | Glycerol release ([1]; peptide concentration 1.0 μM) [μmol/g tissue/hr] | average daily food consumption / appetite versus control (in words) (C57BL/6J (ob/ob) mice; 26-week-old ob/ob mice, FIG. 11B) | Ave. food consumption (C57BL/6J (ob/ob) mice; [4]) [g/mouse/day] | Blood glucose (C57BL/6J (ob/ob) mice; [4]) [mM] | Body weight gain (C57BL/6J (ob/ob) mice; [4]) [g] | Final body weight (C57BL/6J (ob/ob) mice; [4]) [g] | Triglyceride (C57BL/6J (ob/ob) mice; [4]) [mM] | Ave. food consumption (C57BL/6J (ob/ob) mice; [5]) [g/mouse/day] | Blood glucose (C57BL/6J (ob/ob) mice; [5]) [mM] | Body weight gain (C57BL/6J (ob/ob) mice; [5]) [g] | Final body weight (C57BL/6J (ob/ob) mice; [5]) [g] | Triglyceride (C57BL/6J (ob/ob) mice; [5]) [mM] | Initial body weight (C57BL/6J (ob/ob) mice; female ob/ob mice 26 weeks, Treatment (Day 0-18), i.p. 500 μg/kg daily) [g] | Initial body weight (C57BL/6J (ob/ob) mice; female ob/ob mice, Post-treatment (Day 20-38), saline) [g] | anti-obesity action on body weight gain (in words) (C57BL/6J (ob/ob) mice; obese mice, FIG. 11A, i.p. 500 μg/kg daily, 18 days) | cumulative weight gain (in words) (C57BL/6J (ob/ob) mice; 16-week old ob/ob mice, chronic treatment, FIG. 12) | Glycerol released (Porcine adipose Tissue) [nmol/mg tissue/hour] | 14C incorporation [2] [Av DPM/mg tissue/hour] | Glycerol released [3] [nmol/mg tissue/hour]
9403 (LRKVQCRSVEGSCGF; disulfide 6-13; listed as Homo sapiens) [compound 9403] | 1.80 ± 0.03 | 1.88 ± 0.13 | No significance | 5.03 ± 0.13 | 6.0 ± 1.0 | 2.00 ± 0.24 | 56.70 ± 4.45 | 0.54 ± 0.15 | 4.82 ± 0.22 | 6.2 ± 0.8 | -0.32 ± 0.23 | 54.42 ± 4.66 | 0.49 ± 0.10 | 54.74 ± 4.96 | 54.70 ± 4.15 | anti-obesity actions |  |  |  | 
9604 (YLRIVQCRSVEGSCGF; disulfide 7-14; listed as Homo sapiens) [compound 9604] |  |  |  |  |  |  |  |  |  |  |  |  |  |  |  |  | exceptional efficacy | 1600 ± 20 | 28 ± 3 | 
9605 (KLRIVQCRSVEGSCGF; disulfide 7-14; listed as Homo sapiens) [compound 9605] |  |  |  |  |  |  |  |  |  |  |  |  |  |  |  |  |  | 1350 ± 80 | 36 ± 2 | 1100 ± 80
